Test results taken from patent publication US20170114025A1, “METHODS FOR INHIBITING NECROPTOSIS” (Catalyst Therapeutics Pty Ltd, priority 2014, published 2017).
Like-named read-outs stand apart in the source and are kept apart here.

Assays:
[1] = tested on: U937 human histiocytic leukemia cell line; assay: Screening for inhibition of TSQ induced necroptosis, 96 well plate format; assay type: cell-based
Method: Screening Compounds for Inhibition of TSQ Induced Necroptosis, 96 Well Plate Format.
U937 human histiocytic leukemia cell line.
35,000 per well in 120 μL of media, counted and plated immediately prior to addition of inhibitor and death stimuli. Final well volume of 150 μL after addition of compounds and death stimuli
HTRPMI (WEHI Media kitchen, contains L-Glutamine and penicillin, streptomycin)—supplemented with 7.4% v/v FCS (Gibco, Precision Plus. Lot #1221437)
48 hours following addition of compounds and death stimuli
DMSO Final Concentration (% v/v): 0.2%
Compounds that are in the Death Stimulation Cocktail and their Final Concentrations: • hTNF-Fc (100 ng/ml)—produced by Silke lab, WEHI • Compound A (500 nM)—Smac mimetic, Tetralogic • Q-VD-OPh (10 μM)—MP Biomedicals
Analysis: • Cells treated with PI staining (1 μg/ml) and analysed by flow cytometry
TNF; S: Smac mimetic; Q: Q-VD-OPh): TSQ treatment ensures that cells specifically undergo necroptotic cell death. TNF activates the TNF receptor, Smac mimetic direct the signal away from proinflammatory signaling and toward the RIP1/RIP3-mediated cell death pathways, and Q-VD-OPh ensures that the apoptotic response is blocked leaving only the programmed necrosis response. The compounds' activity (solution in DMSO) tested in this TSQ-induced assay is evaluated by measuring their ability to block cell death as measured by flow cytometry after PI staining.

[2] = tested on: wild type U937 cells; assay: Cell death assay, TSQ-induced necroptosis in U937 cells (PI, flow cytometry); assay type: cell-based, human; conditions: for IC50: Homo sapiens
Text: (§1) Mouse dermal fibroblasts (MDFs) were isolated from three MlkI^−/− mice and three congenic wild type mice and then immortalized by SV40 large T antigen to generate three biologically independent cell lines, as described in Murphy J M, et al. (2013), Immunity 39(3):443-453. Immortalized MDFs were similarly prepared from three Ripk3^−/− mice and congenic wild type mice. MDFs and HEK293T were maintained in Dulbecco's modified Eagle's medium (DMEM) supplemented with 8-10% v/v fetal calf serum (FCS), and 5 μg/mL puromycin for lines stably transduced with inducible expression constructs for MLKL. U937 cells were cultured in RPMI1640 supplemented with 8% v/v FCS. Cell death assays were carried out in 24 well plates, seeding 1×10^5 cells per well. Cells attached over 4 h in the presence of 10 ng/mL doxycycline or 20 ng/mL were then treated with assorted combinations of Necrostatin (50 μM) and Q-VD-OPh (5 μM) 30 min prior to addition of TNF (100 ng/mL) and Smac mimetic (500 nM). After 24 h for MDF cells or 48 h for U937 cells, cells were harvested and PI positive cells (1 μg/mL) quantified using a BD FACSCalibur flow cytometer.

[3] = tested on: U937 cells; assay: Counter screen: cell viability without TSQ cocktail (off target effect); assay type: cell-based; conditions: U937 without TSQ cocktail; for Off target effect (% cell death) at 500 nM: compound at 500 nM; for Off target effect (% cell death) at 1 uM: compound at 1 uM; for Off target effect (% cell death) at 5 uM: compound at 5 uM; for Off target effect (% cell death) at 10 uM: compound at 10 uM
Method: In parallel, all compounds are tested for their ability to affect cell viability. The same U937 cells are treated with compound in DMSO without the TSQ cocktail. This counter screen enables evaluation of off-target effects. In this case gain, cell viability is measured by flow cytometry after PI staining.

[4] = target: T1, human MLKL(190-471) pseudokinase domain (Homo sapiens, UniProt Q8NB16); assay: Surface Plasmon Resonance (SPR) binding, human MLKL; design: made in house; host or cells: Sf21 insect cells; conditions: read-out: Affinity (Kd) as determined by SPR
T1 sequence (Q8NB16 190-471): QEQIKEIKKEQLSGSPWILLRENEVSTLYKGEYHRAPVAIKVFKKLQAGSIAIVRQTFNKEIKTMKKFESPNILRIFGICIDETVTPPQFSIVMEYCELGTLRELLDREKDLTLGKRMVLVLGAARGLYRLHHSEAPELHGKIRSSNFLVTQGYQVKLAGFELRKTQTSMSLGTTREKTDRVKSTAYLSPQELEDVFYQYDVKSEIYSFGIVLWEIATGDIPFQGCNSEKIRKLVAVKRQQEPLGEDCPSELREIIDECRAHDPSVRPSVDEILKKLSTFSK
Text: Double His-tagged MLKL and an unrelated negative control reference protein were immobilized on an NTA Capture chip charged with Ni^2+ according to manufacturer's instructions. In some instances, double His-tagged proteins were captured via Ni^2+/NTA chelation on a series S sensor chip containing carboxymethylated dextran surface pre-immobilized with nitrilotriacetic acid (NTA). The surface was then activated and enhanced with NHS/EDC mixture and His captured proteins covalently coupled to the surface as succinamide esters. Ethanolamine was injected later to block any unreacted esters. Unbound Ni^2+ and non-covalently bound proteins were eluted by EDTA injections.
Typical immobilization levels were 2000-3000 Response Units (RU). Flow cell 1 was left blank as a reference surface. Immobilization experiments were carried out at 25° C. in a running buffer containing 20 mM HEPES (pH 8.0), 200 mM NaCl and 0.005% (v/v) surfactant P20.
Binding experiments were carried out in Running Buffer+2% v/v DMSO. […] Data were reduced, solvent corrected, and double referenced by Biacore T200 Evaluation Software. Data were fit globally to a two state kinetic interaction model and the Kd determined from the (kd/ka) ratio. A 1:1 binding stoichiometry was inferred from the steady state binding curves and the maximum observed Response Unit (RU) levels.

[5] = target: T2, human MLKL ATP-binding site (Homo sapiens, UniProt Q8NB16); assay: Complex between compound and human MLKL (FIG. 5); conditions: FIG. 5 (A) and (B)
T2 sequence (Q8NB16 1-471): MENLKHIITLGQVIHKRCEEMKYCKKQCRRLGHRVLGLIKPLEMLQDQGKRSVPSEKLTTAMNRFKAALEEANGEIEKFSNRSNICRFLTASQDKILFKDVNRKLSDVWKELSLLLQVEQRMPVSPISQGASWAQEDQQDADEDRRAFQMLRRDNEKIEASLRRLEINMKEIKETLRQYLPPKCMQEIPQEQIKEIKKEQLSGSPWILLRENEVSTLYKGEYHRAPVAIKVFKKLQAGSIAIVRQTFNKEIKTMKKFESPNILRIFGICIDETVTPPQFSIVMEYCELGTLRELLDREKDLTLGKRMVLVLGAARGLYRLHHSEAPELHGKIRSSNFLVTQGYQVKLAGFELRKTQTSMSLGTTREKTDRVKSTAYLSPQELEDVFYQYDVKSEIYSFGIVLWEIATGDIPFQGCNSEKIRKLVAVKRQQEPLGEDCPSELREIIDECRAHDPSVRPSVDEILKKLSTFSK

[6] = tested on: wild type MDFs (mouse dermal fibroblasts); assay: Cell death assay, TSQ-induced necroptosis in MDFs (PI, flow cytometry); assay type: cell-based; conditions: wild type MDFs; at same or less than 1 μM
Text: as §1

[7] = U-937, U937, TSQ, 48 hours, unit not given in Table 2 (titrations given in nM), read-out: Cell based assay IC50
[8] = U-937, Table 1, U937 cells, TSQ-induced necroptosis, read-out: Inhibition of necroptosis (IC50)
[9] = U-937, U937, TSQ, 48 hours, average IC50, unit not given in Table 2 (titrations in nM), read-out: Cell based assay Average
[10] = U-937, 48 h, read-out: Cell based assay Average
[11] = U-937, 48 h, read-out: Cell based assay IC50

Row | SMILES | IC50 [1, 7] [nM] | IC50 [2, 8] [nM] | Off target effect (% cell death) at 500 nM [3] [%] | Off target effect (% cell death) at 1 uM [3] [%] | Off target effect (% cell death) at 5 uM [3] [%] | Off target effect (% cell death) at 10 uM [3] [%] | Kd [4] [nM] | IC50 [1, 9] [nM] | binding site in complex with human MLKL [5] | IC50 [1, 10] [nM] | IC50 [1, 11] [nM] | IC50 ([2]; U-937, read-out: Inhibition of necroptosis (IC50)) [nM] | inhibition of TSQ-induced necroptosis [6] | inhibition of TSQ-induced necroptosis ([2]; wild type U937 cells)
1 | CN(c1ccc(NC(=O)Nc2ccccc2)cc1)c1ccnc(Nc2cccc(S(N)(=O)=O)c2)n1 [Compound 2] | 123 | 400 to 800 | 24 | 23 | 32 | 87 | 1300 |  |  |  |  |  |  | 
2 | CN(c1ccc(NC(=O)Nc2cc(C(F)(F)F)ccc2F)cc1)c1ccnc(Nc2cccc(S(N)(=O)=O)c2)n1 [Compound 3] | 3.31 | 1 to 5 | 40 | 72 | 86 | 84 |  | 15.3 | binds within the ATP-binding site of human MLKL |  |  |  |  | 
3 | CN(c1ccc(NC(=O)Nc2ccc(OC(F)(F)F)cc2)cc1)c1ccnc(Nc2ccc(S(N)(=O)=O)cc2)n1 [Compound 4, 4-(4-(Methyl(4-(3-(4-(trifluoromethoxy)phenyl)ureido)phenyl)amino)pyrimidin-2-ylamino)benzenesulfonamide] |  |  |  |  |  |  | 4700 |  |  | > 5000 | 1460 | > 1000 |  | 
4 | COCCNS(=O)(=O)c1cccc(Nc2nccc(N(C)c3ccc(NC(=O)Nc4ccc(OC(F)(F)F)cc4)cc3)n2)c1 [Compound 23, N-(2-Methoxyethyl)-3-(4-(methyl(4-(3-(4-(trifluoromethoxy)phenyl)-ureido)phenyl)amino)pyrimidin-2-ylamino)benzenesulfonamide] | 39 |  | 21 | 21 | 22 | 64 |  | 43.9 |  |  |  |  |  | 
5 | NS(=O)(=O)c1cccc(Nc2nccc(N(c3ccc(NC(=O)Nc4ccc(OC(F)(F)F)cc4)cc3)C3CC3)n2)c1 [Compound 24, 3-((4-(Cyclopropyl(4-(3-(4-(trifluoromethoxy)phenyl)ureido)-phenyl)amino)-pyrimidin-2-yl)amino)benzenesulfonamide] |  |  | 20 | 21 | 66 | 80 |  |  |  | 176 | 144 |  |  | 
6 | CN(c1ccc(NC(=O)Nc2ccc(OC(F)(F)F)cc2)cc1)c1ccnc(Nc2cccc(S(C)(=O)=O)c2)n1 [Compound 25, 1-(4-(Methyl(2-((3-(methylsulfonyl)phenyl)amino)pyrimidin-4-yl)amino)phenyl)-3-(4-(trifluoromethoxy)phenyl)urea] | 21.7 |  | <20 | <20 | 43 | 86 |  | 32.9 |  |  |  |  |  | 
7 | CCN(c1ccc(NC(=O)Nc2ccc(OC(F)(F)F)cc2)cc1)c1ccnc(Nc2cccc(S(N)(=O)=O)c2)n1 [Compound 26, 3-((4-(ethyl(4-(3-(4-(trifluoromethoxy)phenyl)ureido)phenyl)-amino)pyrimidin-2-yl)amino)benzenesulfonamide] |  |  | <20 | <20 | 43 | 69 |  |  |  | 93.6 | 126 |  |  | 
8 | CN(c1ccc(NC(=O)Nc2ccc(OC(F)(F)F)cc2)cc1)c1ccnc(Nc2cccc(CS(C)(=O)=O)c2)n1 [Compound 27, 1-(4-(Methyl(2-((3-((methylsulfonyl)methyl)phenyl)amino)pyrimidin-4-yl)amino)phenyl)-3-(4-(trifluoromethoxy)phenyl)urea] | 191 |  | 24 | 20 | 33 | 84 |  | 114 |  |  |  |  |  | 
9 | CNC(=O)c1cc(Oc2ccc(NC(=O)Nc3ccc(Cl)c(C(F)(F)F)c3)cc2)ccn1 [Sorafenib, reference compound] |  |  |  |  |  |  |  |  |  |  |  |  | did not inhibit | did not inhibit
